# Molecular target: USP30 (Homo sapiens (Human), UniProt Q70CQ3)
# Experiment: USP30 biochemical FP or FI IC50 assay
# Settings: read-out: IC50 range
# In short: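 Human USP30 preincubated 30 min at room temperature with compound (8-point series, 100 µM top final) in Tris pH 7.5, Tween 20, BSA, 5 mM β-mercaptoethanol, in duplicate. FP format: 50 nM TAMRA-peptide–isopeptide-ubiquitin substrate, ex 540/em 590. FI format: 100 nM ubiquitin-rhodamine 110, ex 487/em 535. Both read at 0 and after 2 h at room temperature.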
# Chain of USP30 (Q70CQ3 57-517): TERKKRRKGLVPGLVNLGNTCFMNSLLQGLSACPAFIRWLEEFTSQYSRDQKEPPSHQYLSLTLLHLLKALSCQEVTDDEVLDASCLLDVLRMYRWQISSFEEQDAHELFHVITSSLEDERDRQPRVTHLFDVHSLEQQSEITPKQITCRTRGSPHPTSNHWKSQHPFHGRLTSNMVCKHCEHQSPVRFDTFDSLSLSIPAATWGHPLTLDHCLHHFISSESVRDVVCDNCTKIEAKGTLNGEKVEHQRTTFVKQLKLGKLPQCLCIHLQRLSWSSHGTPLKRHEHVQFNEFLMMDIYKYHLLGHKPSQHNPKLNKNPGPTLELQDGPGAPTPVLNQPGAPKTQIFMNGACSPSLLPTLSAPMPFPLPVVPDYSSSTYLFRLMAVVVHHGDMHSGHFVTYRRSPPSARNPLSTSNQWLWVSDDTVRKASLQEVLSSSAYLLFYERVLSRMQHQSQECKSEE
row,SMILES,IC50
1,"Cc1cn(-c2ccc(C(=O)N[C@@H]3CCN(C#N)C3)cc2F)cn1 [Example 223, (R)-N-(1-cyanopyrrolidin-3-yl)-3-fluoro-4-(4-methyl-1H-imidazol-1-yl)benzamide]",< 100 nM
2,"Cc1nc2nccc-2c(-c2ccc(C(=O)N[C@@H]3CCN(C#N)C3)c(F)c2)[nH]1 [Example 184, (R)-N-(1-cyanopyrrolidin-3-yl)-2-fluoro-4-(2-methyl-3H-pyrrolo[2,3-d]pyrimidin-4-yl)benzamide]",< 100 nM
3,"N#CN1C[C@H]2CCN(C(=O)Nc3ccc(-c4ccccc4)cn3)[C@H]2C1 [Example 202, (3aR,6aR)-5-cyano-N-(5-phenyl-pyridin-2-yl)hexahydropyrrolo[3,4-b]pyrrole-1(2H)-carboxamide]",< 100 nM
4,"COc1cc(-c2cnn(C)c2)ccc1C(=O)N[C@@H]1CCN(C#N)C1 [Example 110, (R)-N-(1-cyanopyrrolidin-3-yl)-2-methoxy-4-(1-methyl-1H-pyrazol-4-yl)benzamide]",100 to 1000 nM
5,"N#CN1CCC(NC(=O)c2ccc(-c3ccccc3Cl)cc2)C1 (stereo not drawn) [Example 3, 2′-chloro-N-(1-cyanopyrrolidin-3-yl)-[1,1′-biphenyl]-4-carboxamide]",< 100 nM
6,"CN(C(=O)c1cn2cc(-c3cnn(C)c3)ccc2n1)[C@@H]1CCN(C#N)C1 [Example 156, (R)-N-(1-cyanopyrrolidin-3-yl)-N-methyl-6-(1-methyl-1H-pyrazol-4-yl)imidazo[, 2-a]pyridine-2-carboxamide]",100 to 1000 nM
7,"N#CN1CC[C@@H](N2CCN(c3cccc(N4CCOCC4)c3)C2=O)C1 [Example 210, (R)-3-(3-(3-morpholinophenyl)-2-oxoimidazolidin-1-yl)pyrrolidine-1-carbonitrile]",100 to 1000 nM
8,"N#CN1CC[C@@H](NC(=O)c2ncc(-c3ccn4nccc4n3)cc2F)C1 [Example 186, (R)-N-(1-cyanopyrrolidin-3-yl)-3-fluoro-5-(pyrazolo[1,5-a]pyrimidin-5-yl)picolinamide]",100 to 1000 nM
9,"COc1cc(C(=O)N[C@@H]2CCN(C#N)C2)ccc1-c1cnn(C)c1 [Example 2, (R)—N-(1-cyanopyrrolidin-3-yl)-3-methoxy-4-(1-methyl-1H-pyrazol-4-yl)benzamide]",< 100 nM
10,"N#CN1C[C@H]2CCN(C(=O)Nc3ccc(C(F)(F)F)cc3F)[C@H]2C1 [Example 90, (3aR,6aR)-5-cyano-N-(2-fluoro-4-(trifluoromethyl)phenyl)hexahydropyrrolo[3,4-b]pyrrole-1(2H)-carboxamide]",< 100 nM
11,"N#CN1C[C@H]2CCN(C(=O)c3ccc(N4CCOCC4)c(Cl)c3)[C@H]2C1 [Example 268, (3aR,6aR)-1-(3-chloro-4-morpholinobenzoyl)hexahydro-pyrrolo[3,4-b]pyrrole-5(1H)-carbonitrile]",100 to 1000 nM
12,"COc1ccc(C2CN(C(=O)N[C@@H]3CCN(C#N)C3)C2)cc1 [Example 190, (R)-N-(1-cyanopyrrolidin-3-yl)-3-(4-methoxyphenyl)azetidine-1-carboxamide]",< 100 nM
13,"N#CN1CC[C@@H](NC(=O)N2CC(Oc3ccccc3)C2)C1 [Example 133, (R)-N-(1-cyanopyrrolidin-3-yl)-3-phenoxyazetidine-1-carboxamide]",100 to 1000 nM
14,"Cn1cc(-c2ccc3nc(C(=O)N[C@@H]4CCN(C#N)C4)[nH]c3c2)cn1 [Example 83, (R)-N-(1-cyanopyrrolidin-3-yl)-6-(1-methyl-1H-pyrazol-4-yl)-1H-benzo[d]imidazole-2-carboxamide]",100 to 1000 nM
15,"COc1ccc(-c2cc(C(=O)N3CC[C@@H]4CN(C#N)C[C@@H]43)on2)cc1 (racemic) [Example 56, rac-(3aR,6aR)-1-(3-(4-methoxyphenyl)isoxazole-5-carbonyl)hexahydropyrrolo[3,4-b]pyrrole-5(1H)-carbonitrile]",100 to 1000 nM
16,"CN(C(=O)Nc1ccc(-c2ccccc2)cc1)C1CCN(C#N)C1 (stereo not drawn) [Example 259, 3-([1,1′-biphenyl]-4-yl)-1-(1-cyanopyrrolidin-3-yl)-1-methylurea]",< 100 nM
17,"N#CN1CC[C@@H](NC(=O)c2ncc(-c3ccc4nccn4c3)cc2F)C1 [Example 187, (R)-N-(1-cyanopyrrolidin-3-yl)-3-fluoro-5-(imidazo[1,2-a]pyridin-6-yl)picolinamide]",100 to 1000 nM
18,"Cn1cc(-c2cccc(C(=O)N[C@@H]3CCN(C#N)C3)c2F)cn1 [Example 104, (R)-N-(1-cyanopyrrolidin-3-yl)-2-fluoro-3-(1-methyl-1H-pyrazol-4-yl)benzamide]",100 to 1000 nM
19,"Cc1ccc(-c2ccn3c(C(=O)N(C)[C@@H]4CCN(C#N)C4)cnc3c2)cn1 [Example 162, (R)-N-(1-cyanopyrrolidin-3-yl)-N-methyl-7-(6-methylpyridin-3-yl)imidazo[1,2-a]pyridine-3-carboxamide]",100 to 1000 nM
20,"N#Cc1ccc(-c2ccc3nc(C(=O)N[C@@H]4CCN(C#N)C4)cn3c2)cc1 [Example 117, (R)-6-(4-cyanophenyl)-N-(1-cyanopyrrolidin-3-yl)imidazo[1,2-a]pyridine-2-carboxamide]",100 to 1000 nM
21,"C[C@@H]1CN(C#N)C[C@H]1NC(=O)c1ncc(-c2ccccc2)s1 [Example 70, N-((3S,4R)-1-cyano-4-methylpyrrolidin-3-yl)-5-phenylthiazole-2-carboxamide]",< 100 nM
22,"Cn1cc(-c2ccc(C(=O)N[C@@H]3CCN(C#N)C3)nc2)cn1 [Example 106, (R)-N-(1-cyanopyrrolidin-3-yl)-5-(1-methyl-1H-pyrazol-4-yl)picolinamide]",100 to 1000 nM
23,"N#CN1CC[C@@H](NC(=O)c2cc(-c3ccccn3)no2)C1 [Example 66, (R)-N-(1-cyanopyrrolidin-3-yl)-3-(pyridin-2-yl)isoxazole-5-carboxamide]",100 to 1000 nM
24,"CN(C(=O)Nc1cccc(Cl)c1)C1CCN(C#N)C1 (stereo not drawn) [Example 257, 3-(3-chlorophenyl)-1-(1-cyanopyrrolidin-3-yl)-1-methylurea]",100 to 1000 nM
25,"N#CN1CC[C@@H](NC(=O)c2cnc(-c3ccccc3Cl)s2)C1 [Example 37, (R)-2-(2-chlorophenyl)-N-(1-cyanopyrrolidin-3-yl)thiazole-5-carboxamide]",< 100 nM
26,"Cn1cc(-c2ccc(C(=O)N[C@@H]3CCN(C#N)C3)cc2F)cn1 [Example 76, (R)-N-(1-cyanopyrrolidin-3-yl)-3-fluoro-4-(1-methyl-1H-pyrazol-4-yl)benzamide]",< 100 nM
27,"CC(C)Cn1nc(C(=O)N[C@@H]2CCN(C#N)C2)c2ccc(-c3cnn(C)c3)cc21 [Example 153, (R)-N-(1-cyanopyrrolidin-3-yl)-1-isobutyl-6-(1-methyl-1H-pyrazol-4-yl)-1H-indazole-3-carboxamide]",100 to 1000 nM
28,"N#CN1CC[C@@H](NC(=O)c2ccc3c(c2)CCN3c2nccc(C3CC3)n2)C1 [Example 239, (R)-N-(1-cyanopyrrolidin-3-yl)-1-(4-cyclopropylpyrimidin-2-yl)indoline-5-carboxamide]",< 100 nM
29,"Cn1cc(-c2ccc(C(=O)N[C@@H]3CN(C#N)C[C@@H]3C3CC3)cc2F)cn1 (relative stereo) [Example 177, N-((cis)-1-cyano-4-cyclopropylpyrrolidin-3-yl)-3-fluoro-4-(1-methyl-1H-pyrazol-4-yl)benzamide]",100 to 1000 nM
30,"CCN(C(=O)Nc1ccc(C(F)(F)F)cc1)[C@@H]1CCN(C#N)C1 [Example 204, (R)-1-(1-cyanopyrrolidin-3-yl)-1-ethyl-3-(4-(trifluoromethyl)phenyl)urea]",< 100 nM

# — patent US10343992B2, “1-cyano-pyrrolidine compounds as USP30 inhibitors” (MISSION THERAPEUTICS LIMITED, priority 2015, dated 2019)
